Measured values reported in ChEMBL document CHEMBL5120922, “Discovery, Optimization, and Evaluation of Potent and Selective PI3Kδ-γ Dual Inhibitors for the Treatment of B-cell Malignancies” (J Med Chem, 2022).

Assays:
SU-DHL-6 [1] = assay: Antiproliferative activity against human SU-DHL-6 cells assessed as cell growth inhibition measured after 72 hrs by MTT assay; type: functional, cell-based; details: SU-DHL-6, 72 h
SUD4 = assay: Antiproliferative activity against human SU-DHL-4 cells assessed as cell growth inhibition measured after 72 hrs by MTT assay; type: functional, cell-based; details: SU-DHL-4, 72 h
[2] = Cmax in Sprague-Dawley rat at 5 mg/kg, po measured upto 24 hrs by LC-MS/MS analysis; type: ADME, organism-based; parameters: dose 5 mg/kg, time < 24 hrs, route po; details: in vivo
[3] = Tmax in Sprague-Dawley rat at 5 mg/kg, po measured upto 24 hrs by LC-MS/MS analysis; type: ADME, organism-based; details: in vivo
[4] = Tmax in Sprague-Dawley rat at 10 mg/kg, po measured upto 24 hrs by LC-MS/MS analysis; type: ADME, organism-based; details: in vivo
[5] = AUC(0 to t) in Sprague-Dawley rat at 10 mg/kg, po measured upto 24 hrs by LC-MS/MS analysis; type: ADME, organism-based; parameters: dose 10 mg/kg, time < 24 hrs, route po; details: in vivo
[6] = AUC(0 to t) in Sprague-Dawley rat at 2 mg/kg, iv measured upto 24 hrs by LC-MS/MS analysis; type: ADME, organism-based; parameters: time < 24 hrs, dose 2 mg/kg, route iv; details: in vivo
SU-DHL-6 [7] = assay: Induction of cell cycle arrest in human SU-DHL-6 cells assessed as accumulation of cells at G0/G1 phase at 0.5 uM incubated for 24 hrs by PI staining based FACScan flow cytometry analysis (reference value: 55.61 %); type: functional
SU-DHL-6 [8] = assay: Induction of cell cycle arrest in human SU-DHL-6 cells assessed as accumulation of cells at S phase at 0.5 uM incubated for 24 hrs by PI staining based FACScan flow cytometry analysis (reference value: 24.18 %); type: functional
DOHH-2 [9] = assay: Induction of cell cycle arrest in human DOHH-2 cells assessed as accumulation of cells at G2/M phase at 0.5 uM incubated for 24 hrs by PI staining based flow cytometry analysis (reference value: 21.42 %); type: functional
SU-DHL-6 [10] = assay: Induction of apoptosis in human SU-DHL-6 cells assessed as viable cells at 1.5 uM incubated for 48 hrs by annexin V-FITC and PI staining based flow cytometry analysis (reference value: 87.0 %); type: functional; details: read-out: Activity
SU-DHL-6 [11] = assay: Induction of apoptosis in human SU-DHL-6 cells assessed as early apoptotic cells at 1.5 uM incubated for 48 hrs by annexin V-FITC and PI staining based flow cytometry analysis (reference value: 8.81 %); type: functional
SU-DHL-6 [12] = assay: Induction of apoptosis in human SU-DHL-6 cells assessed as late apoptotic cells at 1.5 uM incubated for 48 hrs by annexin V-FITC and PI staining based flow cytometry analysis (reference value: 3.88 %); type: functional
SU-DHL-6 [13] = assay: Induction of apoptosis in human SU-DHL-6 cells assessed as early apoptotic cells at 1.5 uM incubated for 48 hrs in presence of ibrutinib by annexin V-FITC and PI staining based flow cytometry analysis (reference value: 8.81 %); type: functional
SU-DHL-6 [14] = assay: Induction of apoptosis in human SU-DHL-6 cells assessed as late apoptotic cells at 1.5 uM incubated for 48 hrs in presence of ibrutinib by annexin V-FITC and PI staining based flow cytometry analysis (reference value: 3.88 %); type: functional
DOHH-2 [15] = assay: Induction of apoptosis in human DOHH-2 cells assessed as early apoptotic cells at 2 uM incubated for 48 hrs by annexin V-FITC and PI staining based flow cytometry analysis (reference value: 2.09 %); type: functional
DOHH-2 [16] = assay: Induction of apoptosis in human DOHH-2 cells assessed as necrotic cells at 2 uM incubated for 48 hrs by annexin V-FITC and PI staining based flow cytometry analysis (Rvb =0.29 %); type: functional
DOHH-2 [17] = assay: Induction of apoptosis in human DOHH-2 cells assessed as viable cells at 2 uM incubated for 48 hrs in presence of ibrutinib by annexin V-FITC and PI staining based flow cytometry analysis (reference value: 95.4 %); type: functional; details: read-out: Activity
DOHH-2 [18] = assay: Induction of apoptosis in human DOHH-2 cells assessed as necrotic cells at 2 uM incubated for 48 hrs in presence of ibrutinib by annexin V-FITC and PI staining based flow cytometry analysis (Rvb =0.29 %); type: functional
Homo sapiens = species: Homo sapiens; assay: Selectivity ratio of IC50 for N-terminal His6-tagged recombinant full length human PI3Kalpha expressed in baculovirus infected Sf21 insect cells to IC50 for N-terminal His6-tagged recombinant full length human PI3Kgamma expressed in baculovirus infected Sf21 insect cells
[19] = Selectivity ratio of IC50 for human SKOV-3 cells over expressing PI3Kalpha to IC50 for human SUDHL-6 cells; type: functional
SU-DHL-6 [20] = assay: Antitumor activity against human SU-DHL-6 cells xenografted in NOD/SCID mouse assessed as tumor growth inhibition at 10 mg/kg, po measured every 2 days in presence of ibrutinib; type: functional; details: SU-DHL-6, 48 h, time 2 day, read-out: TGI
[21] = molecular target: T1, Phosphatidylinositol 4,5-bisphosphate 3-kinase catalytic subunit delta isoform (Homo sapiens, UniProt O00329); assay: Inhibition of N-terminal His6-tagged recombinant full length human PI3Kdelta expressed in baculovirus infected Sf21 insect cells incubated for 30 mins by HTRF assay
T1 sequence (O00329 whole entry): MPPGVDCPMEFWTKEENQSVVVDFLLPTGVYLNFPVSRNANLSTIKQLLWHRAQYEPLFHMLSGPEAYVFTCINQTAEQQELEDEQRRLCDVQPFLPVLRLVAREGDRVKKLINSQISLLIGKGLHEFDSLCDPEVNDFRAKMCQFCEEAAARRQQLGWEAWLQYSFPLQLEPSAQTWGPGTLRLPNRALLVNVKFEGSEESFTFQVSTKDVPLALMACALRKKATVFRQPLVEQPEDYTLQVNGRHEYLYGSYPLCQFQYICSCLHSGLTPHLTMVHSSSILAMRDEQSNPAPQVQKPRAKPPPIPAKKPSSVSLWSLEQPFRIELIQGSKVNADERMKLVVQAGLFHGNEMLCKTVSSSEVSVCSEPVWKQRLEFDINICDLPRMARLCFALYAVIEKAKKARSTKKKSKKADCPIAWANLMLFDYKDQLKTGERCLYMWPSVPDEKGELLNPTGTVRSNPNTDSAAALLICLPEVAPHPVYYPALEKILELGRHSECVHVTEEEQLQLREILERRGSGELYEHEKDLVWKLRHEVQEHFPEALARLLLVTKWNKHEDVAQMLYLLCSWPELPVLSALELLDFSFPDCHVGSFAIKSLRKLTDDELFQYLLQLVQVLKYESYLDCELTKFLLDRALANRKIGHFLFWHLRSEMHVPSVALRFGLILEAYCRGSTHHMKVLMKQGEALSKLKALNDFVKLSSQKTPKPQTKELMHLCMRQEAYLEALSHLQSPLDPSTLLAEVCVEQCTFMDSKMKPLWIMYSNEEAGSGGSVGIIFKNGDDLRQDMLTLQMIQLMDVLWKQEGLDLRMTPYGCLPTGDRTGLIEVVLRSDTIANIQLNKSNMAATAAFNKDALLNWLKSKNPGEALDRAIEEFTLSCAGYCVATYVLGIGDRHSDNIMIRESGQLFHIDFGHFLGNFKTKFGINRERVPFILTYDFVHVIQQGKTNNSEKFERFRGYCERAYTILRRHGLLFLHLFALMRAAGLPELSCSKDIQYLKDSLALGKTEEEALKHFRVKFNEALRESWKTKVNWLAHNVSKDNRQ

IC50 (SU-DHL-6 [1]): 60 nM | Cmax [2]: 3640 ng/mL | Tmax [3]: 3.33 h | Tmax [4]: 0.83 h | AUC(0-t) at 24 h [5]: 2930 ng·h/mL | AUC(0-t) at 24 h [6]: 1150 ng·h/mL | IC50 [21]: 1000 nM
Structure (SMILES): C[C@H]1CC[C@@H](c2nc3cccc(Cl)c3c(=O)n2-c2cccnc2)N1c1nc(N)nc(N)c1C#N
IC50 (SUD4): 30 nM | Activity (SU-DHL-6 [7]): 63.84% | Activity (SU-DHL-6 [8]): 26.15% | Activity (DOHH-2 [9]): 12.82% | viability at 1.5 µM (SU-DHL-6 [10]): 74.7% | Activity (SU-DHL-6 [11]): 17.7% | Activity (SU-DHL-6 [12]): 7.43% | Activity (SU-DHL-6 [13]): 34.5% | Activity (SU-DHL-6 [14]): 18.1% | Activity (DOHH-2 [15]): 20.4% | Activity (DOHH-2 [16]): 1.45% | viability at 2 µM (DOHH-2 [17]): 23.5% | Activity (DOHH-2 [18]): 1.88% | Ratio IC50 (Homo sapiens): 794 | Selectivity ratio [19]: 107 | inhibition in vivo at 10 mg/kg (SU-DHL-6 [20]): ≤ 81.4%
